Reference: article PMC3034309 (European journal of pharmacology, 2011)

Tests used:
[1] = target: T1, cannabinoid CB1 receptor (Rattus norvegicus, UniProt P20272); test: [3H]CP55,940 binding, cannabinoid CB1 receptor, rat cerebellar membranes; details: read-out: Ki (nM) CB1, 1 nM [3H]CP55,940, mean ± S.E.M.
[2] = target: mouse cannabinoid CB2 receptors (Mus musculus, UniProt P47936); test: [3H]CP55,940 binding, cannabinoid CB2 receptor, CB2-CHO cell membranes; details: for better affinity for cannabinoid CB2 receptors than for CB1: ratio of CB1 to CB2 affinity; for Ki: read-out: Ki (nM) CB2, CB2-CHO cell membranes, 1 nM [3H]CP55,940, mean ± S.E.M.
[3] = test system: ICR mice; test: Rectal temperature; details: i.v., 95% confidence limits in parentheses
[4] = test system: ICR mice; test: Tail flick antinociception; details: for ED50 TF (tail flick antinociception): mice, i.v., 95% confidence limits in parentheses
[5] = test system: ICR mice; test: Suppression of spontaneous activity; details: i.v.; for ED50 SA (suppression of spontaneous activity): 95% confidence limits in parentheses
[6] = target: T1, cannabinoid CB1 receptor; test: Agonist-stimulated [35S]GTPγS binding in rat cerebellar membranes; type: biochemical
[7] = test system: mouse isolated vas deferens; test: Mouse vas deferens procedure; details: for dextral shift of WIN 55,212-2 log concentration response curve: 95% confidence limits in parentheses; for mean change in twitch height: compound alone
[8] = test system: ICR mice; test: Mouse feeding experiment; type: in vivo; details: mice food deprived for 24 hr, injected i.p. 30 min before 1 h session
[9] = test system: ICR mice; test: Locomotor trials associated with the feeding experiment; type: in vivo, mouse; details: 10 and 30 mg/kg doses, i.p., 30 min before 10-min test
[10] = test system: C57/Bl6J mice; test: Δ9-tetrahydrocannabinol drug discrimination in mice; type: in vivo, mouse; details: mice trained to discriminate 5.6 mg/kg Δ9-tetrahydrocannabinol from vehicle, s.c.
[11] = test system: ICR mice; test: Antagonist tests in the mouse in vivo test battery
[12] = test system: ICR mice; test: Mouse in vivo screening test battery as a whole, agonist tests
[13] = target: human cannabinoid CB1 receptors (Homo sapiens, UniProt P21554); test: Inhibition of forskolin-stimulated cyclic AMP production in CHO cells; type: cell-based; details: read-out: Emax, inhibition of forskolin-induced stimulation of cyclic AMP
Chain of human cannabinoid CB1 receptors (P21554 whole entry): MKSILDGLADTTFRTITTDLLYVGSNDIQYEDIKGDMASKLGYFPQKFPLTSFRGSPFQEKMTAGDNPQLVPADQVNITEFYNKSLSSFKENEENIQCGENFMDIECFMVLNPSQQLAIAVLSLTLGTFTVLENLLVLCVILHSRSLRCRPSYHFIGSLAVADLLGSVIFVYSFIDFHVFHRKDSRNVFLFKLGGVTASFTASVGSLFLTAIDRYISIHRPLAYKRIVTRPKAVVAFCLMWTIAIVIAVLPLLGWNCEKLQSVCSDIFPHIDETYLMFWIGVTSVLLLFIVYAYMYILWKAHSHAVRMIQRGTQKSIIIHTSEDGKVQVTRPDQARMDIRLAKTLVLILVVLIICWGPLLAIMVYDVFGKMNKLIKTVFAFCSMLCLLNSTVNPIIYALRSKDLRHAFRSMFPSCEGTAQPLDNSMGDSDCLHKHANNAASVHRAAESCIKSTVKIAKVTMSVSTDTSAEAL

T1 sequence (P20272 whole entry): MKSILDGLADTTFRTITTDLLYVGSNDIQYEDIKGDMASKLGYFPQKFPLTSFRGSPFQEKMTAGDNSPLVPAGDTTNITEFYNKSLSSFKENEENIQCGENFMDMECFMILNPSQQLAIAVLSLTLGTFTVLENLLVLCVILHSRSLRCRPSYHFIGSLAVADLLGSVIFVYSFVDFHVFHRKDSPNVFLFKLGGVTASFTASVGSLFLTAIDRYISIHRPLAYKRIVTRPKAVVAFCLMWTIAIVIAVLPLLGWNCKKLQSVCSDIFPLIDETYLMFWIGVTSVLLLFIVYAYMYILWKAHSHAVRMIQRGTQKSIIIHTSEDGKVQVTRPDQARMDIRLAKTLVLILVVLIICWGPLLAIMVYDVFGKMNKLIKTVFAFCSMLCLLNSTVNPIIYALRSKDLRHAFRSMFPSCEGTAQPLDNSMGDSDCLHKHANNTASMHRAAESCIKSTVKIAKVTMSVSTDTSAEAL
Chain of mouse cannabinoid CB2 receptors (P47936 whole entry): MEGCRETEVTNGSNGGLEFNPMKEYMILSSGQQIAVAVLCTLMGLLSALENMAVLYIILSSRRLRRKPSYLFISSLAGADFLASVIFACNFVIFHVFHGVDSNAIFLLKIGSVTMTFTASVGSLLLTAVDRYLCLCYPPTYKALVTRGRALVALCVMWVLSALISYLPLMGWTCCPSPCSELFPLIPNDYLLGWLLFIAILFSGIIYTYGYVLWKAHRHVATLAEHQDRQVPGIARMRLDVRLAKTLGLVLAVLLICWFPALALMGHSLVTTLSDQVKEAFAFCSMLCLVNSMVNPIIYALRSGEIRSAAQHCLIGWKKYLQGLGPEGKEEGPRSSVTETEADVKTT

With CCS(=O)(=O)NCCCCC(C)(C)c1cc(O)c2c(c1)OC(C)(C)C1CC=C(C)CC21 (centres unmarked) [O-2113] the Ki [1] was 1.7 ± 0.3 nM, the “better affinity for cannabinoid CB2 receptors than for CB1” value (“better affinity” for short) [2] was 21 fold and the Ki [2] was 0.08 ± 0.02 nM. The “ED50 RT (rectal temperature)” value [3] was 1.4 (0.3-4.6) mg/kg, the “ED50 TF (tail flick antinociception)” value [4] was 0.3 (0.1-1) mg/kg and the “ED50 SA (suppression of spontaneous activity)” value (from here on “ED50 SA”) [5] was 0.4 (0.1-1.8) mg/kg.
CC1=CC[C@@H]2[C@@H](C1)c1c(O)cc(CC#CCCCNS(C)(=O)=O)cc1OC2(C)C [O-2050] was tested, and the Ki [1] was 2.5 ± 0.4 nM, the “better affinity” value [2] was 12 fold and the Ki [2] was 0.2 ± 0.1 nM. For the same molecule, the “maximum stimulation of [35S]GTPγS binding” value ([6]; compound alone, rat cerebellar membranes) was 11 ± 3%, the “stimulation by CP 55,940 that was not blocked” value ([6]; in presence of 1000 nM CP55,940) was 11 ± 6% and the “dextral shift of WIN 55,212-2 log concentration response curve” value ([7]; 1 nM O-2050) was 2.8 (1.7 - 4.4). For the same molecule, the “dextral shift of WIN 55,212-2 log concentration response curve” value ([7]; 10 nM O-2050) was 7.5 (4.1 - 13), the “dextral shift of WIN 55,212-2 log concentration response curve” value ([7]; 31.62 nM O-2050) was 15.0 (9.9 - 21.9) and the “dextral shift of WIN 55,212-2 log concentration response curve” value ([7]; 100 nM O-2050) was 103.9 (60.0 - 180.7). The “mean change in twitch height” value ([7]; 30 min after 1 nM) was 6.03±6.21%, the “mean change in twitch height” value ([7]; 30 min after 10 nM) was −0.45±5.9% and the “mean change in twitch height” value ([7]; 30 min after 31.62 nM) was 3.39±9.4%. The “mean change in twitch height” value ([7]; 30 min after 100 nM) was 3.8±8.1%, the “mean change in twitch height” value ([7]; 30 min after 1000 nM) was 6.19±16.4% and the Schild plot slope ([7]; interaction with WIN 55,212-2) was 0.83±0.18. For the same molecule, the Kb ([7]; read-out: mean KB value, antagonism of WIN 55,212-2) was 1 ± 0.1 nM, the food intake [8] was “significant and dose-dependent decreases in food intake” and the locomotor activity [9] was “significant locomotor stimulation”. For the same molecule, the “Δ9-tetrahydrocannabinol-like discriminative stimulus effects” value [10] was “produced discriminative stimulus effects that were similar to those of Δ^9-tetrahydrocannabinol”, the delayed antagonist effects ([11]; 30 mg/kg injected 24 hr prior to 3 mg/kg Δ9-tetrahydrocannabinol, data not shown) was “did not have delayed antagonist effects” and the “antagonism of in vivo effects of WIN 55,212-2” value ([11]; doses of up to 3 and 10 mg/kg i.v., vs 1 mg/kg WIN 55,212-2, data not shown) was “did not antagonize”. The “antagonism of in vivo pharmacological effects of Δ9-tetrahydrocannabinol” value ([11]; doses up to 30 mg/kg i.v., vs 3 mg/kg Δ9-tetrahydrocannabinol i.v.) was “did not antagonize”, the “increase in antinociception as compared to vehicle” value ([4]; 10 μg i.c.v., with dimethyl sulfoxide i.v.) was 2 fold and the “activity in the battery of three in vivo tests” value ([12]; mice, i.v., up to 30 mg/kg) was “not active in any of the three in vivo tests”. For the same molecule, the “SA: percent effect at the highest dose” value ([5]; 30 mg/kg (highest dose)) was 69% @ 30.
In the case of CCCCS(=O)(=O)NCCCC#CCc1cc(O)c2c(c1)OC(C)(C)C1CC=C(C)CC21 (centres unmarked) [O-1993], the Ki [1] is reported as 70 ± 10 nM, the Ki [2] is reported as 86 ± 7 nM and the “ED50 RT (rectal temperature)” value [3] is reported as 12 (9-15) mg/kg. The “ED50 TF (tail flick antinociception)” value [4] was 14 (7-27) mg/kg, the “decrease of in vivo potencies as compared to O-1991” value ([12]; across the three in vivo tests (SA, TF, RT)) was 4- to 14 fold and the “ED50 SA” value [5] was 8 (3-16) mg/kg.
Molecule CCCCCCC(C)(C)c1ccc([C@@H]2C[C@H](O)CC[C@H]2CCCO)c(O)c1 [CP55,940, (−)-cis-3-[2-hydroxy-4(1,1-dimethyl-heptyl)phenyl]-trans-4-(3-hydroxy-propyl)cyclohexanol] has an Emax [13] of 74.4%.
With CCS(=O)(=O)NCCCC#CCc1cc(O)c2c(c1)OC(C)(C)[C@@H]1CC=C(C)C[C@@H]21 [O-1991] the Ki [1] was 30 ± 13 nM, the “better affinity” value [2] was 21 fold and the Ki [2] was 1.4 ± 0.2 nM. The “ED50 RT (rectal temperature)” value [3] was 0.8 (0.4-1.6) mg/kg, the “ED50 TF (tail flick antinociception)” value [4] was 0.9 (0.6-1.4) mg/kg and the “ED50 SA” value [5] was 2 (1-3) mg/kg.
